Measured values published in patent US20080194619A1, “Anti-Hiv Quinuclidine Compounds” (priority 2004, published 2008).
Like-named read-outs stand apart in the source and are kept apart here.

Tests used:
HIV-1 IIIB = assay: GenPhar AV-Finder-HIV Drug Discovery Assay, HIV-1 IIIB replication in HeLa indicator cells; format: cell-based; settings: for IC50: read-out: IC50 of HIV replication inhibition
Text: In order to study the viral replication in vitro, the GenPhar AV-Finder™-HIV Drug Discovery Assay was used, a novel technology that consists of two components: (1) a cloned, continuous-passage HeLa cell line containing an HIV-1 tat-activated molecular switch and a Green Fluorescent Protein reporter gene and (2) a recombinant adenovirus (rAd) vector containing the genes for all three of the HIV-1 receptor/co-receptors (CD4, CXCR4, and CCR5) to transduce into HeLa cells and convert them into highly susceptible HIV-1 indicator cells for use in the assay. The indicator cells over-express the HIV-1 receptor genes and are readily infected with any HIV-1 strain or isolate. […] Infected cells fluoresce brightly so that the inhibition of virus replication by potential antiviral drugs can be readily detected and quantified using standard laboratory plate reader technology.
(§1) Detector plates are set up at day 1 by adding HeLa cells (3000/well) to the adenovirus AD-3R in DMEM containing CCS in 96-well plates and incubated at 37° C. under 95% humidity and 5% CO2 for 2 days. […] At day 4, the medium was replaced by fresh medium containing the corresponding concentration of the compounds of interest. The infectivity was assessed by measuring the fluorescence on each well at day 7 ([…]). […] At day 5, the medium was replaced by fresh medium containing the corresponding concentration of compounds of interest and the infectivity was assessed by measuring the fluorescence on each well at day 8. Results are expressed as percentage of inhibition of the viral replication.
(4-amino-phenyl)-(1-aza-bicyclo[2.2.2]oct-4-yl)-methanone (FIG. 1) was used either alone dissolved in water (SP003) or in an aqueous formulation (SP003A) containing zinc sulfate heptahydrate and ascorbic acid at the ratio of 26.6/1/1.6 (for example 200 mg SP003 with 7.5 mg of zinc sulfate heptahydrate and 12.5 mg of ascorbic acid; Xu, J. et al., J. Pharmacol. Exper. Ther., (2003) 307:1148-1157.

HIV MDR 769 strain = assay: AV-Finder-HIV assay, multi-drug resistant HIV MDR 769 strain replication in HeLa cells; format: cell-based
Text: In order to study the viral replication in vitro, the GenPhar AV-Finder™-HIV Drug Discovery Assay was used, a novel technology that consists of two components: (1) a cloned, continuous-passage HeLa cell line containing an HIV-1 tat-activated molecular switch and a Green Fluorescent Protein reporter gene and (2) a recombinant adenovirus (rAd) vector containing the genes for all three of the HIV-1 receptor/co-receptors (CD4, CXCR4, and CCR5) to transduce into HeLa cells and convert them into highly susceptible HIV-1 indicator cells for use in the assay. The indicator cells over-express the HIV-1 receptor genes and are readily infected with any HIV-1 strain or isolate. All HIV-1 strains tested thus far, regardless of co-receptor preference, and all subtypes or classes of HIV-1 will infect these indicator cells. Infected cells fluoresce brightly so that the inhibition of virus replication by potential antiviral drugs can be readily detected and quantified using standard laboratory plate reader technology.
as §1

HeLa cells = assay: MTT cytotoxicity assay (mitochondrial integrity)
Experimental: Following the above described cell treatment protocol, the levels of cellular 3-(4,5-dimehtylthiazol-2-yl)-2,5-diphenyl tetrazolium bromide (MTT) reduction, a measure of mitochondrial integrity, were determined in order to examine whether the compounds tested were cytotoxic.

## Cc1cn([C@H]2C[C@H](N=[N+]=[N-])[C@@H](CO)O2)c(=O)[nH]c1=O [AZT, reference compound]
HIV-1 IIIB; 24 hours pre-medication
  curve plateau, inhibition of viral replication: around 40%
HIV-1 IIIB; 48 hours pretreatment, FIG. 4
  IC50: 30 nM
HIV MDR 769 strain; without pre-medication, FIG. 5
  inhibition of HIV MDR 769 strain replication (in words): not effective
HeLa cells; read-out: toxicity IC50 (MTT cytotoxicity assay)
  IC50: 161000 nM

## O=c1[nH]cnc2c1ncn2[C@H]1CC[C@@H](CO)O1 [ddI]
HeLa cells
  IC50: 89000 nM

## Nc1ccc(C(=O)C23CCN(CC2)CC3)cc1 [SP003, (4-Amino-phenyl)-(1-aza-bicyclo[2.2.2]oct-4-yl)-methanone]
HIV-1 IIIB; 48 hours pretreatment, FIG. 4
  inhibition of HIV replication: 50%
HIV-1 IIIB; Human immunodeficiency virus 1, IIIB, HeLa, 48 hours pretreatment, FIG. 4
  IC50: 0.03 nM
HIV-1 IIIB; no pre-medication, HeLa cells, FIG. 2
  inhibition of HIV-1 IIIB viral replication (in words): higher efficiency than the classical antiviral agent ddI
HIV-1 IIIB; no pre-medication, concentrations in the nanomolar range
  inhibition of HIV-1 IIIB replication: up to 50%
HIV MDR 769 strain; Human immunodeficiency virus 1, HeLa, read-out: IC50 of HIV MDR 769 viral replication inhibition
  IC50: 0.01 nM
HIV MDR 769 strain; without pre-medication, FIG. 5
  inhibition of HIV MDR 769 viral replication: 60%
HeLa cells; all concentrations tested, up to 100 μM
  cell toxicity (MTT cytotoxicity assay): devoid of cell toxicity
